Here are results for 19 molecules from patent US20090170846A1, “INHIBITORS OF THE HIV INTEGRASE ENZYME” (Pfizer Inc, priority 2005, published 2009).

Test [1] concerns the target T1, Full-length wild type HIV-1 integrase (SF1) (Human immunodeficiency virus type 1 group M subtype B, UniProt P04585).
T1 construct: made in house; host or cells: E. coli BL21 (DE3)
The test can be described thus: Integrase strand-transfer scintillation proximity assay. It is filed as biochemical. Particulars: integrase strand-transfer SPA; read-out: IC50. From the text:
Integrase Strand-Transfer Scintillation Proximity Assay
Oligonucleotides: Oligonucleotide #1-5′-(biotin)[…]-3′ (SEQ ID NO: 1) and oligonucleotide #2-5′-[…]-3′ (SEQ ID NO: 2), were synthesized by TriLink BioTechnologies, Inc. (San Diego, Calif.). The annealed product represents preprocessed viral ds-DNA derived from the LTR U5 sequence of the viral genome. A ds-DNA control to test for non-specific interactions was made using a 3′ di-deoxy derivative of oligonucleotide #1 annealed to oligonucleotide #2. The CA overhang at the 5′ end of the non-biotinylated strand of the ds-DNA was created artificially by using a complimentary DNA oligonucleotide shortened by 2 base pairs. This configuration eliminates the requisite 3′ processing step of the integrase enzyme prior to the strand-transfer mechanism.
Host ds-DNA was prepared as an unlabeled and [^3H]-thymidine labeled product from annealed oligonucleotide #3-5-[…]-3′ (SEQ ID NO: 3), and oligonucleotide #4-1-5′-[…]-3′ (SEQ ID NO: 4), both synthesized by TriLink BioTechnologies, Inc. (San Diego, Calif.). The annealed product had overhanging 3′ ends of poly(dA). Host DNA was custom radiolabeled by PerkinElmer Life Sciences Inc. (Boston, Mass.) using an enzymatic method with a 12/1 ratio of [methyl-^3H]dTTP/cold ds-DNA to yield 5′-blunt end ds-DNA with a specific activity of >900 Ci/mmol. The radiolabeled product was purified using a NENSORB cartridge and stored in stabilized aqueous solution (PerkinElmer). The final radiolabeled product had six [^3H]-thymidine nucleotides at both 5′ ends of the host ds-DNA.
Reagents: Streptavidin-coated polyvinyltoluene (PVT) SPA beads were purchased from Amersham Biosciences (Piscataway, N.J.). Cesium chloride was purchased from Shelton Scientific, Inc. (Shelton, Conn.). White, polystyrene, flat-bottom, non-binding surface, 96-well plates were purchased from Corning. All other buffer components were purchased from Sigma (St. Louis, Mo.) unless otherwise indicated.
Enzyme Construction Full-length wild type HIV-1 integrase (SF1) sequence (amino acids 1-289) was constructed in a pET24a vector (Novagen, Madison, Wis.). The construct was confirmed through DNA sequencing.
Enzyme Purification Full length wild-type HIV Integrase was expressed in E. coli BL21 (DE3) cells and induced with 1 mM isopropyl-1 thio-β-D-galactopyranoside (IPTG) when cells reached an optical density between 0.8-1.0 at 600 nm. Cells were lysed by microfluidation in 50 mM HEPES pH 7.0, 75 mM NaCl, 5 mM DTT, 1 mM 4-(2-Aminoethyl)benzenesulfonylfluoride HCl (AEBSF). Lysate was then centrifuged 20 minutes at 11 k rpm in GSA rotor in Sorvall RC-5B at 4° C. Supernant was discarded and pellet resuspended in 50 mM HEPES pH 7.0, 750 mM NaCl, 5 mM DTT, 1 mM AEBSF and homogenized in a 40 mL Dounce homogenizer for 20 minutes on ice. Homogenate was then centrifuged 20 minutes at 11 k rpm in SS34 rotor in Sorvall RC-5B at 4° C. Supernant was discarded and pellet resuspended in 50 mM HEPES pH 7.0, 750 mM NaCl, 25 mM CHAPS, 5 mM DTT, 1 mM AEBSF. Preparation was then centrifuged 20 minutes at 11 k rpm in SS34 rotor in Sorvall RC-5B at 4° C.
Supernant was then diluted 1:1 with 50 mM HEPES pH 7.0, 25 mM CHAPS, 1 mM DTT, 1 mM AEBSF and loaded onto a Q-Sepharose column pre-equilibrated with 50 mM HEPES, pH 7.0, 375 mM NaCl, 25 mM CHAPS, 1 mM DTT, 1 mM AEBSF. The flow through peak was collected and NaCl diluted to 0.1 M with 50 mM HEPES pH 7.0, 25 mM CHAPS, 1 mM DTT, 0.5 mM AEBSF and loaded onto a SP-Sepharose column pre-equilibrated with 50 mM HEPES pH 7.0, 100 mM NaCl, 25 mM CHAPS, 1 mM DTT, 0.5 mM AEBSF. After washing the column with the equilibration buffer, a 100 to 400 mM NaCl gradient was run. The eluted integrase was concentrated and run on a S-300 gel diffusion column using 50 mM HEPES pH 7.0, 500 mM NaCl, 25 mM CHAPS, 1 mM DTT, 0.5 mM AEBSF. The peak from this column was concentrated to 0.76 mg/mL and stored at −70° C. and later used for strand transfer assays. […]
Background: In a scintillation proximity assay essentially only radioactivity close to the scintillant gives light.

The test system of test [2] is RF strain of HIV-1 in CEM-SS cells. The test can be described thus: HIV-1 cell protection assay (XTT dye reduction). Format: cell-based. The procedure, abridged: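 CEM-SS cells infected at an moi giving about 90% kill (mock-infected for toxicity) and exposed to half-log compound dilutions for six days; XTT/PMS added for 4 h, formazan read at 450 nm. EC50 as protection to 50% of uninfected control, CC50 from uninfected cells, therapeutic index as CC50/EC50.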
In general terms: Tetrazolium dyes change colour on reduction, which living cells bring about.

Where [3] appears, read: Human immunodeficiency virus 1, CEM-SS, 144 h.
The mark [4] stands for this setting: Human immunodeficiency virus 1, 144 h, HIV-1 RF, CEM-SS cells, XTT, six days, read-out: EC50.

For orientation: IC50 means the concentration that inhibits the measured activity by half. What is called EC50 is the concentration at which the effect is half-maximal.

Structures are written as SMILES. Like-named read-outs stand apart in the source and are kept apart here.

With `CN(O)C(=O)c1cc2c(C(=O)NCC(F)F)cn(Cc3ccc(F)cc3)c2cn1` [Example 45, N3-(2,2-difluoroethyl)-1-(4-fluorobenzyl)-N5-hydroxy-N5-methyl-1H-pyrrolo[2,3-c]pyridine-3,5-dicarboxamide], in test [1], the IC50 is 243 nM. The same molecule showed an EC50 in test [2] (setting [3]) of 39 nM.
The corresponding values for `CN(O)C(=O)c1cc2c(C(=O)N3CCC[C@H]3CO)cn(Cc3ccc(F)cc3)c2cn1` [Example 22, 1-(4-fluorobenzyl)-N-hydroxy-3-{[(2S)-2-(hydroxymethyl)pyrrolidin-1-yl]carbonyl}-N-methyl-1H-pyrrolo[2,3-c]pyridine-5-carboxamide] are 320 nM and 170 nM.
The corresponding values for `O=C(NO)c1cc2c(C(=O)N3CCCC(CO)C3)cn(Cc3ccc(F)cc3)c2cn1` (centres unmarked) [Example 30, 1-(4-fluorobenzyl)-N-hydroxy-3-{[3-(hydroxymethyl)piperidin-1-yl]carbonyl}-1H-pyrrolo[2,3-c]pyridine-5-carboxamide] are 72 nM and 110 nM.
As for `CONC(=O)c1cc2c(S(=O)(=O)N3CCNC(=O)C3)cn(Cc3ccc(F)cc3F)c2cn1` [Example 39, 1-(2,4-difluorobenzyl)-N-methoxy-3-[(3-oxopiperazin-1-yl)sulfonyl]-1H-pyrrolo[2,3-c]pyridine-5-carboxamide], in test [1], the IC50 was found to be 299 nM. In addition, the EC50 in test [2] (setting [4]) is 210 nM.
Take `Cc1c(CNC(=O)c2cn(Cc3ccc(F)cc3)c3cnc(C(=O)NO)cc23)cnn1C` [Example 28, N~3~-[(1,5-dimethyl-1H-pyrazol-4-yl)methyl]-1-(4-fluorobenzyl)-N~5~- hydroxy-1H-pyrrolo[2,3-c]pyridine-3,5-dicarboxamide]: the IC50 in test [1] came to 46 nM. In test [2] (setting [3]), the EC50 is 100 nM.
Consider `CONC(=O)c1cc2c(C(=O)N3CCC(N(C)C)C3)cn(Cc3ccc(F)cc3)c2cn1` (centres unmarked) [Example 12, 3-{[3-(dimethylamino)pyrrolidin-1-yl]carbonyl)-1-(4-fluorobenzyl)-N-methoxy-1H-pyrrolo[2,3-c]pyridine-5-carboxamide], for which the half-maximal inhibitory concentration (IC50) in test [1] was 801 nM. For the same molecule, the EC50 in test [2] (setting [3]) was 140 nM.
The corresponding values for `CONC(=O)c1cc2c(C(=O)NCCCN3CCCC3=O)cn(Cc3ccc(F)cc3)c2cn1` [Example 9, 1-(4-fluorobenzyl)-N~5~- methoxy-N~3~-[3-(2-oxopyrrolidin-1-yl)propyl]-1H-pyrrolo[2,3-c]pyridine-3,5-dicarboxamide] are 267 nM and 42 nM.
In the case of `CS(=O)(=O)Nc1cn(Cc2ccc(F)cc2)c2cnc(C(=O)NO)cc12` [Example 5, 1-(4-fluorobenzyl)-N-hydroxy-3-[(methylsulfonyl)amino]-1H-pyrrolo[2,3-c]pyridine-5-carboxamide], in test [1], the IC50 came to 56 nM. Also, the EC50 in test [2] (setting [4]) was found to be 5.2 nM.
The corresponding values for `CC(=O)Nc1cn(Cc2ccc(F)cc2)c2cnc(C(=O)NO)cc12` [Example 1, 3-(acetylamino)-1-(4-fluorobenzyl)-N-hydroxy-1H-pyrrolo[2,3-c]pyridine-5-carboxamide] are 130 nM and 11 nM.
As to `CN(O)C(=O)c1cc2c(C(=O)N3CCCC(CO)C3)cn(Cc3ccc(F)cc3)c2cn1` (centres unmarked) [Example 33], the IC50 in test [1] came out at 320 nM. Moreover, in test [2] (setting [3]), a half-maximal response (EC50) required 140 nM.
On to `CN(C)C1CCN(C(=O)c2cn(Cc3ccc(F)cc3)c3cnc(C(=O)NO)cc23)C1` (centres unmarked) [Example 26, 3-{[3-(dimethylamino)pyrrolidin-1-yl]carbonyl}-1-(4-fluorobenzyl)-N-hydroxy-1H-pyrrolo[2,3-c]pyridine-5-carboxamide], for which the IC50 in test [1] is 158 nM. The same molecule displayed an EC50 in test [2] (setting [3]) of 90 nM.
`CN(O)C(=O)c1cc2c(NS(C)(=O)=O)cn(Cc3ccc(F)cc3)c2cn1` [Example 6, 1-(4-fluorobenzyl)-N-hydroxy-N-methyl-3-[(methylsulfonyl)amino]-1H-pyrrolo[2,3-c]pyridine-5-carboxamide]: in test [1], the IC50 came to 270 nM. For the same molecule, the EC50 in test [2] (setting [4]) was 30 nM.
For the molecule `CONC(=O)c1cc2c(C(=O)NCc3cnn(C)c3C)cn(Cc3ccc(F)cc3)c2cn1` [Example 11, N~3~-[(1,5-dimethyl-1H-pyrazol-4-yl)methyl]-1-(4-fluorobenzyl)-N~5~- methoxy-1H-pyrrolo[2,3-c]pyridine-3,5-dicarboxamide], the 50% inhibitory concentration (IC50) in test [1] stood at 530 nM. For the same molecule, the EC50 in test [2] (setting [3]) turned out to be 67 nM.
Take `CONC(=O)c1cc2c(S(=O)(=O)NCCN3CCOCC3)cn(Cc3ccc(F)cc3F)c2cn1` [Example 40, 1-(2,4-difluorobenzyl)-N-methoxy-3-{[(2-morpholin-4-ylethyl)amino]sulfonyl}-1H-pyrrolo[2,3-c]pyridine-5-carboxamide]: in test [1], the IC50 amounted to 760 nM. Besides, the EC50 in test [2] (setting [4]) came to 52 nM.
Take `CONC(=O)c1cc2c(C(=O)NC(CC(=O)NC3CC3)C3CC3)cn(Cc3ccc(F)cc3)c2cn1` (centres unmarked) [Example 15, N~3~-[1-cyclopropyl-3-(cyclopropylamino)-3-oxopropyl]-1-(4-fluorobenzyl)-N~5~- methoxy-1H-pyrrolo[2,3-c]pyridine-3,5-dicarboxamide]: in test [1], the half-maximal inhibitory concentration (IC50) was found to be 300 nM. Further, in test [2] (setting [3]), the concentration giving a half-maximal response (EC50) was determined as 120 nM.
As to `CN(O)C(=O)c1cc2c(S(=O)(=O)N(C)C)cn(Cc3ccc(F)cc3)c2cn1` [Example 35, 3-[(dimethylamino)sulfonyl]-1-(4-fluorobenzyl)-N-hydroxy-N-methyl-1H-pyrrolo[2,3-c]pyridine-5-carboxamide], the half-inhibitory concentration (IC50) in test [1] is 1030 nM. Also, the EC50 in test [2] (setting [4]) came to 370 nM.
Regarding `CN(O)C(=O)c1cc2c(NS(=O)(=O)c3ccccc3)cn(Cc3ccc(F)cc3)c2cn1` [Example 4, 1-(4-fluorobenzyl)-N-hydroxy-N-methyl-3-[(phenylsulfonyl)amino]-1H-pyrrolo[2,3-c]pyridine-5-carboxamide], in test [1], the IC50 worked out at 360 nM. Further, the EC50 in test [2] (setting [4]) came out at 42 nM.
As for `O=C(NO)c1cc2c(C(=O)NCC34CCCN3CCC4)cn(Cc3ccc(F)cc3)c2cn1` [Example 25, 1-(4-fluorobenzyl)-N~5~- hydroxy-N~3~-(tetrahydro-1H-pyrrolizin-7a(5H)-ylmethyl)-1H-pyrrolo[2,3-c]pyridine-3,5-dicarboxamide], in test [1], the IC50 amounted to 152 nM. The molecule also displayed an EC50 in test [2] (setting [3]) of 250 nM.
Consider `O=C(NO)c1cc2c(S(=O)(=O)NCCN3CCOCC3)cn(Cc3ccc(F)cc3F)c2cn1` [Example 37, 1-(2,4-difluorobenzyl)-N-hydroxy-3-{[(2-morpholin-4-ylethyl)amino]sulfonyl}-1H-pyrrolo[2,3-c]pyridine-5-carboxamide], for which the IC50 in test [1] stood at 161 nM. Moreover, in test [2] (setting [4]), the EC50 was found to be 490 nM.
